Publication PMC10290043, “Pharmacokinetics, safety, and antitumor activity of talazoparib monotherapy in Chinese patients with advanced solid tumors” (Investigational New Drugs, 2023)
Like-named read-outs stand apart in the source and are kept apart here.

How the values were obtained:
[1] = Japanese patients, cited from earlier work; for Cmax / Tmax: ref Naito et al 2021 [16]
[2] = system: solid tumors; parameters: method as in PMID 34160752; conditions: molecularly unselected Japanese patients with solid tumors; cited from earlier work
[3] = parameters: method as in PMID 34388386; conditions: cited from earlier work
[4] = parameters: method as in PMID 35907135; conditions: 19 Japanese patients with germline BRCA-mutated advanced breast cancer; cited from earlier work
[5] = system: advanced solid tumors; assay: Antitumor activity: best overall response / unconfirmed objective response by investigator assessment; format: in vivo, human
Protocol: Tumor assessments were performed on Day 29 and every 8 weeks thereafter for the initial 12 cycles, regardless of any dose interruptions or dose delays, and then performed per local standard practice after completion of Cycle 12. […] Unconfirmed objective response by investigator assessment was defined as a complete (disappearance of all target lesions) or partial (at least 30% decrease in the sum of diameters of target lesions) response recorded from Cycle 1 Day 1 until disease progression, start of subsequent anticancer therapy, or death due to any cause. Given the exploratory nature of the efficacy endpoint, confirmation of response was not required. Duration of response, calculated as the time from first documentation of complete response or partial response to date of first documentation of objective progression or death, was only calculated for the subgroup of patients with an unconfirmed objective response. All patients who had received at least 1 dose of talazoparib were included in the safety and efficacy analysis sets. All treated patients with at least 1 PK concentration in the single-dose and/or multiple-dose PK part were included in the PK concentration analysis set, and all treated patients with at least 1 of the PK parameters of primary interest in the single-dose and/or multiple-dose PK part were included in the PK parameter analysis set. All patients in the PK parameter analysis set who completed both the single-dose PK and multiple-dose PK parts without major protocol deviations were included in the PK evaluable analysis set.

[6] = cited from earlier work; for Tmax: median (range)
[7] = parameters: method as in PMID 35907135; conditions: Japanese patients, cited from earlier work
[8] = clinical; conditions: human, in vivo, po, 1 mg
Protocol: A single dose of talazoparib 1 mg was administered orally on Day –9. From Cycle 1 Day 1, patients received talazoparib 1 mg QD orally on a continuous basis at approximately the same time each day (preferably in the morning) until disease progression, death, unacceptable toxicity, or withdrawal of consent. Dose interruptions or reductions were not required unless toxicity persisted at grade 2 for ≥7 days. Daily dosing was paused for grade ≥3 hematologic toxicities. Supportive care including blood products was allowed as appropriate per local guidance. To minimize any drug-drug interaction effects relating to talazoparib exposure and potential alteration to efficacy, co-medication with P-glycoprotein (P-gp) inhibitors and inducers was prohibited for Cycle 1 when intensive PK assessments were scheduled after both single-dose and multiple-dose talazoparib administrations. After Cycle 1, only potent P-gp inhibitors were prohibited to accommodate more co-medication options.
To assess the single-dose PK profile, patients took talazoparib on Day –9 of a 9-day (216 h) lead-in period; blood samples were collected at pre-dose and at 0.5, 1, 2, 4, 8, 24, 48, 96, 168, and 216 h post-dose. For the steady-state PK profile, serial samples after multiple doses of talazoparib were collected on Day 22 of the first cycle at pre-dose and at 0.5, 1, 2, 4, 8, and 24 h post-dose. Prior to serial PK sampling (Cycle 1 Day –9, Cycle 1 Day 22), patients were required to fast for at least 8 h before dosing and they had to continue fasting for 2 h after dosing to control the variability due to food effect on Cmax. For the other PK sampling points, talazoparib could have been taken with or without food. On clinic visit days, talazoparib was administered after completion of a pre-dose blood sampling for PK and assessments. Blood samples of approximately 3 mL, to provide a minimum of 1.5 mL plasma, for measurement of talazoparib concentrations were collected.
Talazoparib PK parameters were calculated for each patient and each treatment, as applicable, using non-compartmental analysis of concentration-time data. Summary statistics were calculated by setting concentration values below the lower limit of quantification to zero.

[9] = parameters: method as in PMID 30110579; conditions: EMBRACA, cited from earlier work
[10] = parameters: method as in PMID 31489639; conditions: population PK model, 490 patients, cited from earlier work
[11] = Western and Japanese patients; cited from earlier work
[12] = 11 patients with measurable disease at baseline
[13] = patients with measurable disease N=11
[14] = multiple dosing 1 mg QD oral, ref de Bono et al 2017
[15] = single dosing 1 mg oral, ref de Bono et al 2017

Cn1ncnc1[C@H]1c2n[nH]c(=O)c3cc(F)cc(c23)N[C@@H]1c1ccc(F)cc1 [talazoparib]
AUCtau ([1]; multiple dose 1 mg QD oral, geometric mean (geometric %CV), ref Naito et al 2021): 244.7 (21) ng.h/mL
Cmax ([1]; multiple dose 1 mg QD oral, geometric mean (geometric %CV)): 32.84 ng/mL
Tmax ([1]; multiple dose 1 mg QD oral, median (range)): 1.03 (0.7–1.9) h
Rac ([1]; multiple dose 1 mg QD, median (range), ref Naito et al 2021): 2.32 (1.70–8.28)
Cmax ([1]; single dose 1 mg oral, N=6, geometric mean (geometric %CV)): 13.78 ng/mL
t1/2 ([1]; single dose 1 mg oral, arithmetic mean ± standard deviation, ref Naito et al 2021): 50.73 ± 10.1 h
AUCinf ([1]; single dose 1 mg oral, geometric mean (geometric %CV), ref Naito et al 2021): 199.7 (9) ng.h/mL
Tmax ([1]; single dose 1 mg oral, median (range)): 0.97 (0.5–2.0) h
Overall disease control rate [2]: 44.4%
Grade 3–4 TEAE: neutropenia ([3]; TALAPRO-1, 10/127): 8%
Grade 3–4 TEAE: thrombocytopenia ([3]; TALAPRO-1, 11/127): 9%
Grade 3–4 TEAE: anemia ([3]; TALAPRO-1, 39/127): 31%
Geometric mean Ctrough (steady-state trough concentrations) [4]: 3.346 ng/mL
Patients progressed by data cut-off [5, 12]: 54.5%
Patients with stable disease [5, 12]: 36.4%
ORR (best overall response of partial response) ([5]; 11 patients with measurable disease at baseline, 95% CI 0.2–41.3): 9.1%
Patients with non-complete response/non-progressive disease ([5]; 15 treated patients): 6.7%
Patients with partial response ([5]; 15 treated patients): 6.7%
Patients with stable disease ([5]; 15 treated patients): 26.7%
Unconfirmed objective response rate (investigator-assessed) ([5]; 15 treated patients, 95% CI 0.2–31.9): 6.7%
Disease control based on best overall response ([5]; 15 treated patients, 95% CI 16.3–67.7): 40.0%
Disease control rate ([5]; 95% CI 16.7–76.6): 45.5%
Best overall response: Complete response ([5]; efficacy analysis set N=15): 0 n (%)
Best overall response: Non-complete response/non-progressive disease ([5]; efficacy analysis set N=15): 1 (6.7) n (%)
Best overall response: Not evaluable ([5]; efficacy analysis set N=15): 2 (13.3) n (%)
Best overall response: Partial response ([5]; efficacy analysis set N=15): 1 (6.7) n (%)
Best overall response: Progressive disease ([5]; efficacy analysis set N=15): 7 (46.7) n (%)
Best overall response: Stable disease ([5]; efficacy analysis set N=15): 4 (26.7) n (%)
Disease control ([5]; efficacy analysis set N=15, CR, PR, SD and non-CR/non-PD): 6 (40.0 [16.3–67.7]) n (%, [95% CI])
Objective response ([5]; efficacy analysis set N=15, complete and partial responses, Clopper-Pearson CI): 1 (6.7 [0.2–31.9]) n (%, [95% CI])
Best overall response: Complete response [5, 13]: 0 n (%)
Best overall response: Non-complete response/non-progressive disease [5, 13]: 0 n (%)
Best overall response: Not evaluable [5, 13]: 0 n (%)
Best overall response: Partial response [5, 13]: 1 (9.1) n (%)
Best overall response: Progressive disease [5, 13]: 6 (54.5) n (%)
Best overall response: Stable disease [5, 13]: 4 (36.4) n (%)
Disease control [5, 13]: 5 (45.5 [16.7–76.6]) n (%, [95% CI])
Duration of response ([5]; the one responder, measurable disease at baseline): 114 days
Median time to Cmax ([6]; Western patients with advanced cancers): ≤ 2 h
Mean accumulation ratio at steady state ([6]; Western patients): 2.4 fold
t1/2 (plasma elimination, biphasic kinetics) ([6]; Western patients): approximately 2 days
Cmax ([6]; multiple dosing 1 mg QD oral, N=6, ref de Bono et al 2017): 21.0 (7.99) ng/mL
Tmax [6, 14]: 1.02 (0.75–2.00) h
CL/F [6, 14]: 5.24 (1.39) L/h
Cmax ([6]; single dosing 1 mg oral, N=5, US/UK sites, ref de Bono et al 2017): 10.6 (4.22) ng/mL
t1/2 ([6]; single dosing 1 mg oral, arithmetic mean ± standard deviation, ref de Bono et al 2017): 52.9 ± 13.4 h
VZ/F ([6]; single dosing 1 mg oral, column uncertain, ref de Bono et al 2017): 415 (170) L
Tmax [6, 15]: 1.03 (0.73–2.07) h
CL/F [6, 15]: 5.39 (1.59) L/h
Patients with grade 3–4 treatment-related AEs ([7]; 10/19): 52.6%
Treatment-related AE: anemia ([7]; 13/19): 68.4%
Grade 5 AEs [7]: no grade 5 AEs
Patients with treatment-related AEs [7]: all patients experienced treatment-related AEs
AUC [8]: 86.5 ng·h/mL
AUC(0-inf) [8]: 208 ng·h/mL
AUC(0-t) [8]: 172 ng·h/mL
Cmax [8]: 8.51 ng/mL
Tmax [8]: 1.9 h
Vd/F [8]: 457 L
half-life [8]: 67 ± 11.8 h
Grade 3–4 TEAE: thrombocytopenia ([9]; 42/286): 15%
Grade 3–4 TEAE: neutropenia ([9]; 60/286): 21%
Grade 3–4 TEAE: anemia ([9]; 112/286): 39%
Apparent volume of distribution of the central compartment ([10]; 4.79% interpatient variability): 162 L
Mean apparent oral clearance ([10]; 27.0% interpatient variability): 6.36 L/h
Maximum tolerated dose of monotherapy [11]: 1 mg QD
